Source: ChEMBL document CHEMBL1641549, “Inhibitory effects of hybrid liposomes on the growth of synoviocyte causing rheumatoid arthritis” (2011)
Activity calls are given as the source filed them. The calls are words filed in the database; no cut-off is given here.

Columns and labels:
[1] = organism: Homo sapiens; test: Growth inhibition of HFLS isolated from rheumatoid arthritis patients after 48 hrs by WST-1 assay; type: functional
[2] = Induction of apoptosis in HFLS isolated from rheumatoid arthritis patients after 24 hrs using propidium iodide staining by flow cytometry relative to DNA content; type: functional, Homo sapiens
[3] = organism: Homo sapiens; test: Induction of apoptosis in HFLS isolated from rheumatoid arthritis patients by TUNEL assay; type: functional
[4] = system: Mus musculus; test: Antiarthritic activity in SKG mouse expressing human rheumatoid arthritis invasion of inflammatory cells assessed as reduction of laminarin-induced joint swelling at 135 mg/kg, iv administered 14 days after laminarin challenge every 2 days for 36 weeks; type: functional, organism-based; parameters: dose 135 mg/kg

CCCCCCCCCCCCOCCOCCOCCOCCOCCOCCOCCOCCOCCOCCOCCOCCOCCOCCOCCOCCOCCOCCOCCOCCOCCO
growth inhibition (GI) [1]: Active
Activity [2]: 20.9%
Activity [3]: Active

CCCCCCCCCCCCOCCOCCOCCOCCOCCOCCOCCOCCOCCOCCOCCOCCOCCOCCOCCOCCOCCOCCOCCOCCOCCOCCOCCO
growth inhibition (GI) [1]: Active
Activity [2]: 24.8%
Activity [3]: Active
Activity [4]: Active

CCCCCCCCCCCCOCCOCCOCCOCCOCCOCCOCCOCCOCCOCCOCCOCCOCCOCCOCCOCCOCCOCCOCCOCCOCCOCCOCCOCCOCCO
growth inhibition (GI) [1]: Active
Activity [2]: 21.2%
Activity [3]: Active
